Common to all, as to test: whole-cell patch clamp, HEK293T cells expressing mutant
Format in all cases: cell-based
Common to all, as to details: for relative responsiveness: 100 µM agonist 2 s, relative to ATP (100%)
Background: Patch clamp records ionic current or voltage across a cell membrane.

One assay has as its target T1, rP2X4R N208A mutant (Rattus norvegicus, UniProt P51577, N208A).
T1 construct: expressed in transfected cells; host or cells: HEK293T
T1 sequence (P51577 1-388 N208A): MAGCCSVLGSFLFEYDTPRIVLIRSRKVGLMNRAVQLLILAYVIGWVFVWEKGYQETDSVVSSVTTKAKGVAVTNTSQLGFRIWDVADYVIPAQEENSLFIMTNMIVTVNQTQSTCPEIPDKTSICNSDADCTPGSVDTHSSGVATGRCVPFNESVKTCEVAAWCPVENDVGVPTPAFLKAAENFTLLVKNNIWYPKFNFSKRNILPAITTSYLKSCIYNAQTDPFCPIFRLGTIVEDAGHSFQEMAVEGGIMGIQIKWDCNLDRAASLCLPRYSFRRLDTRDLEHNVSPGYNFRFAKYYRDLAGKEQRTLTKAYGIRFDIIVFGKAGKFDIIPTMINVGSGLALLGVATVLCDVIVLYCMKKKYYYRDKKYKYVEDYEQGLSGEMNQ
Here is the method:
(§1) To express the recombinant channels, we used human embryonic kidney (HEK) 293T cells (American Type Culture Collection, Rockville, MD, USA) grown in Dulbecco modified Eagle’s medium (Thermo Fisher Scientific, Waltham, MA) supplemented with 10% fetal bovine serum (Sigma-Aldrich, St Louis, MO), 50 U/ml penicillin and 50 µg/ml streptomycin (both Thermo Fisher Scientific, Waltham, MA) in a humidified 5% CO2 and 95% air at 37°C. Cells were cultured in 75 cm^2 plastic culture flasks (NUNC, Rochester, NY) for 36–72 hours until reaching 80–95% confluence. Before the day of transfection, the cells were plated on 35 mm culture dishes (Sarstedt, Newton, NC) and incubated at 37°C for at least 24 h. Transfection was done using 2 µg of either WT or mutant receptor DNA with 2 µl of JetPrime reagent in 2 ml of Dulbecco modified Eagle’s medium, according to manufacturer’s instructions (PolyPlus-transfection, Illkirch, France). Transfected cells were identified by the fluorescence signal of EGFP using the Olympus IX71 inverted research microscope with fluorescence illuminators (Model IX71; Olympus, Melville, NY).
(§2) cDNAs encoding the sequences of the rP2X4 and mutated subunits were subcloned into the pIRES2-EGFP vector (Clontech, Mountain View, CA, USA). To generate the mutants, oligonucleotides (synthesized and provided by VBC-Genomics, Vienna, Austria or Sigma Aldrich) containing specific mutagenesis mismatches were introduced into the rP2X4/pIRES2-EGFP template using PfU Ultra DNA polymerase (Thermo Fisher Scientific). A High-Speed Plasmid Mini Kit (Geneaid, Taipei City, Taiwan) was used to isolate the plasmids for transfection. Dye terminator cycle sequencing (ABI PRISM 3100, Applied Biosystems, Foster City, CA) was used to identify and verify the presence of the mutations. The sequencing was performed by the DNA Sequencing Laboratory, Institute of Microbiology, ASCR, Prague.
(§3) ATP-induced currents were recorded from whole cells clamped to −60 mV using an Axopatch 200B patch-clamp amplifier (Axon Instruments, Union City, CA). The recordings were captured and stored using the Digidata 1322A and pClamp9 software package (Axon Instruments). During the experiments, the cell culture was perfused with a bath solution containing: 142 mM NaCl, 3 mM KCl, 2 mM CaCl2, 1 mM MgCl2, 10 mM 4-(2-Hydroxyethyl)piperazine-1-ethanesulfonic acid (HEPES) and 10 mM D-glucose, adjusted to pH 7.3 with 1 M NaOH. The patch electrodes were filled with a solution containing: 154 mM CsCl, 11 mM EGTA and 10 mM HEPES, adjusted to pH 7.2 with 1.6 M CsOH. The whole-cell configuration was used to abolish the influence of natively present metabotropic receptors for ATP and we used intracellular cesium to block any kind of possible background potassium conductance. Potency of ATP was measured based on the activation of naïve (not previously stimulated) receptors using a short (2–5 s) application of various concentrations of ATP. The results are expressed as molar concentration of ATP required to produce 50% of the maximal response (EC50). One or two responses were recorded from one cell, if not otherwise stated, and responses from different cells were pooled. The maximum current amplitude (Imax) was measured in response to application of supramaximal concentrations (100–1000 µM) of ATP. Responsiveness to P2XR agonists 2-MeS-ATP, ATPγS, BzATP, and α,β-meATP, all applied in 100 µM concentration, was expressed as percentage of response in comparison to 100 µM ATP treatment for selected mutants. In all mutants, the whole cell currents were also measured in the presence of 3 µM IVM, which was dissolved in dimethyl sulfoxide, stored in stock solutions at 10 mM, and diluted to required concentrations in bath solution in the day of experiment. The control and drug containing solutions were applied via a rapid (exchange time 30–40 ms) perfusion system (RSC-200, BIOLOGIC, Claix, France). All other chemicals are from Sigma-Aldrich. […]

The next assay deals with T2, rP2X4R S212A mutant (Rattus norvegicus, UniProt P51577, S212A).
T2 construct: expressed in transfected cells; host or cells: HEK293T
T2 sequence (P51577 1-388 S212A): T1 sequence (P51577 1-388 N208A) with A208N, S212A
Here is the method: as §1, §2, §3

A further assay deals with T3, rP2X4R T210A mutant (Rattus norvegicus, UniProt P51577, T210A).
T3 construct: expressed in transfected cells; host or cells: HEK293T
T3 sequence (P51577 1-388 T210A): T1 sequence (P51577 1-388 N208A) with A208N, T210A
Here is the method: as §1, §2, §3

The mark [1] stands for this setting: 100 µM ATP 60 s, biexponential fit.
The mark [2] stands for this setting: contribution of τdes2, 100 µM ATP 60 s.
The mark [3] stands for this setting: decay after removal of 1 or 3 µM ATP, 3 µM IVM.
[4] abbreviates: naïve receptors, 2–5 s application.
[5] abbreviates: 3 µM IVM 4-6 min vs IVM-untreated.

Where a chain is given by its changes, count along the chain named.

In the case of `Nc1ncnc2c1ncn2C1OC(COP(=O)(O)CP(=O)(O)OP(=O)(O)O)C(O)C1O` (stereo not drawn) [α,β-meATP, α,β-methyleneadenosine 5′-triphosphate], the values for the relative responsiveness on rP2X4R N208A mutant, at rP2X4R S212A mutant and at rP2X4R T210A mutant were 28.5±2.3%, 19.2±6.2% and 8.8±2.3 %, respectively.
As usually defined, the EC50 is the concentration that produces a half-maximal response. Low readings indicate an effect from little substance, high ones a need for much substance. As for `Nc1ncnc2c1ncn2[C@@H]1O[C@H](COP(=O)(O)OP(=O)(O)OP(=O)(O)O)[C@@H](O)[C@H]1O` [ATP], the results for the τdes1 on rP2X4R N208A mutant (setting [1]), at rP2X4R S212A mutant (setting [1]) and on rP2X4R T210A mutant (setting [1]) were 1.1 ± 0.8 s, 1.7 ± 0.4 s and 2.0 ± 0.3 s, respectively. Moreover, the results for the τdes2 on rP2X4R N208A mutant (setting [1]), at rP2X4R S212A mutant (setting [1]) and at rP2X4R T210A mutant (setting [1]) were 8.7 ± 4.8 s, 11.4 ± 1.5 s and 14.4 ± 2.5 s, respectively. The Imax is reported as 1.7 ± 0.3 nA at rP2X4R N208A mutant (100–1000 µM ATP), 2.1 ± 0.2 nA on rP2X4R S212A mutant (100–1000 µM ATP) and 1.9 ± 0.2 nA at rP2X4R T210A mutant (100–1000 µM ATP). For the same compound, the “Imax+IVM” value at rP2X4R N208A mutant (ATP after 3 µM IVM 4-6 min) is 3.6 ± 0.3 nA; at rP2X4R S212A mutant (ATP after 3 µM IVM 4-6 min), 3.4 ± 0.2 nA; at rP2X4R T210A mutant (ATP after 3 µM IVM 4-6 min) it was 3.5 ± 0.6 nA. The “A2 /(A1+A2)” value on rP2X4R N208A mutant (setting [2]) was found to be 77 ± 4%; on rP2X4R S212A mutant (setting [2]), 62 ± 5%; on rP2X4R T210A mutant (setting [2]), 52 ± 8%. Further, the “τoff +IVM” value is reported as 9.1 ± 0.2 s at rP2X4R N208A mutant (setting [3]), 20 ± 5.0 s at rP2X4R S212A mutant (setting [3]) and 5.5 ± 0.4 s on rP2X4R T210A mutant (setting [3]). The EC50 at rP2X4R N208A mutant (setting [4]) came out at 7.6 ± 2.1 µM; on rP2X4R S212A mutant (setting [4]), 4.8 ± 1.2 µM; at rP2X4R T210A mutant (setting [4]) it was 26 ± 2.6 µM. The τdes on rP2X4R N208A mutant (weighted, 100 µM ATP 60 s) came to 6.8 ± 3.5 s; on rP2X4R S212A mutant (weighted, 100 µM ATP 60 s), 7.8 ± 1.1 s; at rP2X4R T210A mutant (weighted, 100 µM ATP 60 s), 8.9 ± 2.1 s.
As to `CSc1nc(N)c2ncn([C@@H]3O[C@H](COP(=O)(O)OP(=O)(O)OP(=O)(O)O)[C@@H](O)[C@H]3O)c2n1` [2-MeS-ATP, 2-(Methylthio)adenosine 5′-triphosphate], the values for the relative responsiveness at rP2X4R N208A mutant, at rP2X4R S212A mutant and on rP2X4R T210A mutant were 60.0±11.2%, 65.1±19.7% and 59.2±6.9%, respectively.
For the compound “2′(3′-O-(4-Benzoylbenzoyl)adenosine 5′-triphosphate [BzATP]”, the results for the relative responsiveness at rP2X4R N208A mutant, on rP2X4R S212A mutant and at rP2X4R T210A mutant were 33.4±5.4%, 47.5±5.2% and 23.9±3.2 %, respectively.
In the same order, the values of `Nc1ncnc2c1ncn2[C@@H]1O[C@H](CO[P@](=O)(O)O[P@](=O)(O)O[P@@](=O)(O)S)[C@@H](O)[C@H]1O` [ATPγS, Adenosine 5′-(γ-thio)triphosphate] are 42.2±5.2%, 61.7±3.9% and 34.2±4.1 %.
On to `CC[C@H](C)[C@H]1O[C@]2(CC[C@@H]1C)C[C@@H]1C[C@@H](C/C=C(\C)[C@@H](O[C@H]3C[C@H](OC)[C@@H](O[C@H]4C[C@H](OC)[C@@H](O)[C@H](C)O4)[C@H](C)O3)[C@@H](C)/C=C/C=C3\CO[C@@H]4[C@H](O)C(C)=C[C@@H](C(=O)O1)[C@]34O)O2` [IVM, ivermectin], for which the figures for the “Fold incr. Imax” value at rP2X4R N208A mutant (setting [5]), on rP2X4R S212A mutant (setting [5]) and on rP2X4R T210A mutant (setting [5]) were 2.3 ± 0.5 fold, 1.6 ± 0.2 fold and 1.8 ± 0.2 fold, respectively.
